Numbering of substitutions follows the chain as printed.
Tests used:
Format in all cases: cell-based
FLT3 D835L+K = assay: FLT3 autophosphorylation, immunoprecipitation/Western blot, D835L+K; details: D835L+K mutant, concentrations of 200 nM, 1 h
Method: (§1) Activated FLT3 expression was measured by performing immunoprecipitation, SDS-PAGE and Western blotting as previously described. Specifically, 10^7 cells were washed in medium and treated with inhibitor for 1 h followed by stimulation with 25 ng/ml of FLT3 ligand for 15 minutes where indicated. Cells were washed twice with ice-cold PBS and lysed in 300 µl of NP-40 lysis buffer (150 mM NaCl, 20 mM TrisHCl (pH7.4), 10% glycerol, 1% NP-40, 10 mM EDTA, 100 mM NaF) with 2 mM Na3VO4 and protease inhibitors (Complete Tablets, Roche, Mannheim, Germany) at 4°C for 30 m. Cell lysate was harvested by centrifugation at 13,000 × g for 30 m at 4°C. FLT3 S-18 antibody was incubated with 500 µg lysate overnight at 4°C followed by immunoprecipitation with protein A-agarose beads for 2 h. Beads were washed once in Tris buffered saline with 1% Tween-20 (TBST) and twice in TBS. Samples were boiled in sodium dodecyl sulfate (SDS) sample buffer prior to separating in a 8% SDS-polyacrylamide gel (SDS-PAGE). Proteins were transferred to a polyvinyl diflouride (PVDF) membrane (Millipore, Bedford, MA, USA) and detected by 4G10 phosphotyrosine antibody and anti-FLT3 S-18 antibody. FLT3 was visualized using the Odyssey Infra Red Imaging System from Li-Cor (Lincoln, NE, USA) using AlexaFluor 680 goat anti-mouse and AlexaFluor 800 goat anti-rabbit antibodies. […]

FLT3 I836S = molecular target: T1, FLT3 I836S (Homo sapiens, UniProt P36888, I836S); assay: FLT3 autophosphorylation, immunoprecipitation/Western blot, I836S; details: I836S mutant, concentrations of 200 nM, 1 h
T1 construct: expressed in transfected cells; host or cells: BaF3
T1 sequence (P36888 27-993 I836S): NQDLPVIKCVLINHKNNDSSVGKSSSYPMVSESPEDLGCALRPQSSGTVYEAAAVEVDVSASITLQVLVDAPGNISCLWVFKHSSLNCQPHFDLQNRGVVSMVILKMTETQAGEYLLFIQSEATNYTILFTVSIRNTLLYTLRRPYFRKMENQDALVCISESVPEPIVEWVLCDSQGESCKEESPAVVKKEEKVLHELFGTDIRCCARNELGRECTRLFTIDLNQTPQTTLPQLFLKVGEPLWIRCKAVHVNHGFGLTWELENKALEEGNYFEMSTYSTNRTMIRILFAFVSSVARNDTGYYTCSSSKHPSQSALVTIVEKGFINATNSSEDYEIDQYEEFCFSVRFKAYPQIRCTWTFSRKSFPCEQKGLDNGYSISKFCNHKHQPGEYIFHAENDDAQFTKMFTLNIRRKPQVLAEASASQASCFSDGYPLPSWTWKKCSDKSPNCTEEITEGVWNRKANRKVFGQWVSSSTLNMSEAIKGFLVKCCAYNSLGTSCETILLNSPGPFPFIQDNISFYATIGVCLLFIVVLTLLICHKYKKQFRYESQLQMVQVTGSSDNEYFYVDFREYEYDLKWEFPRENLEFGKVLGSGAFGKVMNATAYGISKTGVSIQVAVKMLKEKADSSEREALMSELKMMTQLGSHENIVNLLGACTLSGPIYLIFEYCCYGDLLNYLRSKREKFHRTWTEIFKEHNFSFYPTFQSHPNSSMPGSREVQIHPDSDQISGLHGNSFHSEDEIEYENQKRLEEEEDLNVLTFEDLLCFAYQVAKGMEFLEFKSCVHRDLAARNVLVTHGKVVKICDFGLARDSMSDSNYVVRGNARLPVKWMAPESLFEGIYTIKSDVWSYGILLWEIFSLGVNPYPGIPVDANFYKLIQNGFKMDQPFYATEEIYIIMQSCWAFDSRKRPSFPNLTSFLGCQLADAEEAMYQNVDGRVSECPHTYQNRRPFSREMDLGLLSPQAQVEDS
Method: as §1

FLT3 I836T = molecular target: T2, FLT3 I836T (Homo sapiens, UniProt P36888, I836T); assay: FLT3 autophosphorylation, immunoprecipitation/Western blot, I836T; details: I836T mutant, concentrations of 200 nM, 1 h
T2 construct: expressed in transfected cells; host or cells: BaF3
T2 sequence (P36888 27-993 I836T): T1 sequence (P36888 27-993 I836S) with S810T
Method: as §1

FLT3/ITD = FLT3/ITD autophosphorylation and signaling pathways, Western blot; details: FLT3/ITD cells, 1 h, concentration-dependent
Method: Activated FLT3 expression was measured by performing immunoprecipitation, SDS-PAGE and Western blotting as previously described. Specifically, 10^7 cells were washed in medium and treated with inhibitor for 1 h followed by stimulation with 25 ng/ml of FLT3 ligand for 15 minutes where indicated. Cells were washed twice with ice-cold PBS and lysed in 300 µl of NP-40 lysis buffer (150 mM NaCl, 20 mM TrisHCl (pH7.4), 10% glycerol, 1% NP-40, 10 mM EDTA, 100 mM NaF) with 2 mM Na3VO4 and protease inhibitors (Complete Tablets, Roche, Mannheim, Germany) at 4°C for 30 m. Cell lysate was harvested by centrifugation at 13,000 × g for 30 m at 4°C. FLT3 S-18 antibody was incubated with 500 µg lysate overnight at 4°C followed by immunoprecipitation with protein A-agarose beads for 2 h. Beads were washed once in Tris buffered saline with 1% Tween-20 (TBST) and twice in TBS. Samples were boiled in sodium dodecyl sulfate (SDS) sample buffer prior to separating in a 8% SDS-polyacrylamide gel (SDS-PAGE). Proteins were transferred to a polyvinyl diflouride (PVDF) membrane (Millipore, Bedford, MA, USA) and detected by 4G10 phosphotyrosine antibody and anti-FLT3 S-18 antibody. FLT3 was visualized using the Odyssey Infra Red Imaging System from Li-Cor (Lincoln, NE, USA) using AlexaFluor 680 goat anti-mouse and AlexaFluor 800 goat anti-rabbit antibodies. Phosphorylation of the FLT3 downstream signaling mediators, STAT5, AKT and MAP kinase was investigated by loading 50 µg of whole cell lysate and probing with the indicated antibodies. The membrane was washed and incubated in goat anti-rabbit secondary antibody conjugated to horseradish peroxidase followed by enhanced chemiluminescence (ECL). The membrane was subsequently stripped in 200 mM glycine buffer, pH 2.5 with 0.1% Tween-20 and reprobed for STAT5, AKT and MAP kinase expression using the respective antibodies.

Row | SMILES | Inhibition of FLT3 phosphorylation (FLT3 D835L+K) | Inhibition of FLT3 phosphorylation (FLT3 I836S) | Inhibition of FLT3 phosphorylation (FLT3 I836T) | Inhibition of FLT3 autophosphorylation and phosphorylation of STAT5, AKT and Map kinase (FLT3/ITD)
1 | Cc1ccc(C(=O)Nc2ccc(CN3CCN(C)CC3)c(C(F)(F)F)c2)cc1C#Cc1cnc2cccnn12 [Ponatinib] | significant autophosphorylation still observable | significant autophosphorylation still observable | significant autophosphorylation still observable | 
2 | Cc1cc2ncc(-c3ccccc3)nc2cc1C [AG1295] |  |  |  | inhibited FLT3 autophosphorylation
3 | CC1(COc2ccc3c(c2)ncn3-c2ccc3cccc(N4CCC(N)CC4)c3n2)COC1 [Crenolanib] | significant autophosphorylation still observable | significant autophosphorylation still observable | significant autophosphorylation still observable | 

Source: article PMC5355235, “FLT3 activating mutations display differential sensitivity to multiple tyrosine kinase inhibitors” (Oncotarget, 2017)
